The values that follow are results of earlier work, collected in US8053463B2, “PPAR active compounds” (Plexxikon Inc., priority 2007, dated 2011).

Structures are written as SMILES.

The target in data set [1] is T1, murine PPARα (Mus musculus, UniProt P23204).
T1 sequence (P23204 1-468): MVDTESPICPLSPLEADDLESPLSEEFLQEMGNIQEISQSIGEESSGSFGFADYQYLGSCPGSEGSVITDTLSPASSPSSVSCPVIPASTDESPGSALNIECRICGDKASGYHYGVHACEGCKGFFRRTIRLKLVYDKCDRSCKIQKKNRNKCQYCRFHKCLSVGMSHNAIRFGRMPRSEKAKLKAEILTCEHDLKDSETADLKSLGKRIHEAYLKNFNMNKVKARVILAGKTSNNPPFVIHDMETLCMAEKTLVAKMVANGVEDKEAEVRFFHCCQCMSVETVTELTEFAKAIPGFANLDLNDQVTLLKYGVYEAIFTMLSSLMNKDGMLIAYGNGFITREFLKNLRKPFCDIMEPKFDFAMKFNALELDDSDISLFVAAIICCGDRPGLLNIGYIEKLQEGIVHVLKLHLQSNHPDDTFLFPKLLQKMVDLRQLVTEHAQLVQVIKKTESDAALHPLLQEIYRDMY

The target in data set [2] is T2, PPARδ (Homo sapiens, UniProt Q03181).
T2 sequence (Q03181 1-441): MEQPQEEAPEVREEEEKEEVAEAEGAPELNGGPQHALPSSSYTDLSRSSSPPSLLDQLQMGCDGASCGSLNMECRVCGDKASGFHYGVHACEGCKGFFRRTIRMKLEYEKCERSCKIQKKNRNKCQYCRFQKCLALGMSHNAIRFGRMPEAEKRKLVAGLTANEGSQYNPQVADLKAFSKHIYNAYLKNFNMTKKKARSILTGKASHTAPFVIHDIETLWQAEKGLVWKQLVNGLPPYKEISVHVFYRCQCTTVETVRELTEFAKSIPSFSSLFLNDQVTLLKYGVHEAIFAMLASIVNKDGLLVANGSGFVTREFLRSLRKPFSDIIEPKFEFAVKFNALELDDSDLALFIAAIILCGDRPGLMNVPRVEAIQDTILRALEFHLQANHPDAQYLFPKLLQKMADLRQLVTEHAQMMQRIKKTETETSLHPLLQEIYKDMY

For the molecule `CCCc1c(OCCCOc2ccc(OCC(=O)O)cc2)ccc(C(C)=O)c1O` [Compound L-165041], the “activity on murine PPARα” value in data set [1] is “inactive”. In data set [2], the “agonist selectivity for PPARδ over PPARγ” value is “approximately 30 fold”.
